Reference: patent US20240368174A1, “Antiviral Heterocyclic Compounds” (Enanta Pharmaceuticals, Inc., priority 2023, published 2024)

Tests used:
[1] = test system: HMPV clinical isolate A2 strain TN 94-49; test: HMPV antiviral assay, Method 1 (LLC-MK2 cells, ATP-Lite); assay type: cell-based; conditions: human metapneumovirus, hMPV A2 TN/94-49, LLC-MK2 cells
How it was run: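 EC50 derived by four-parameter logistic fit of percent cell health, measured as ATP-Lite luminescence after 7 days at 37° C, 5% CO2. Compounds tested as 10-point 2.5-fold dilutions starting at 2 μM against TN 94-49 virus (MOI 0.005) in LLC-MK2 cells seeded at 5,000/well, infection medium containing 2 μg/mL TPCK-trypsin, serum-free.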

[2] = test system: HMPV clinical isolate A2 strain TN 94-49; test: HMPV antiviral assay, Method 2 (LLC-MK2 cells with CP-100-356, ATP-Lite); assay type: cell-based; conditions: human metapneumovirus; hMPV A2 TN/94-49, LLC-MK2 cells with CP-100-356, Method 2
How it was run: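 EC50 comes from a four-parameter fit of percent cell viability (ATP-Lite, normalized to virus-only and cell-only wells) after 7 days at 37 °C. Infection used HMPV A2 TN 94-49 at MOI 0.16 in LLC-MK2 cells, with 2 μM P-gp inhibitor CP-100-356 and 2 μg/mL TPCK-trypsin final; dose range 200 nM top, 2.5-fold, 10 points, duplicate.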

[3] = test system: genotype A, “Long” strain RSV; test: RSV-A assay (CPE, ATPlite readout in Hep-2 cells); assay type: cell-based, Human respiratory syncytial virus; conditions: human respiratory syncytial virus, activity class
Text: Hep-2 cells, (originally derived from tumors grown in irradiated-cortisonised weanling rats that had been injected with epidermoid carcinoma tissue from the larynx of a person, but later found to be indistinguishable from HeLa cells by PCR DNA analysis), were used for the culturing of genotype A, “Long” strain RSV. Flasks were inoculated with RSV and viral stocks were collected once cytopathic effect (CPE) was greater than 90%. Viral stocks in 25% sucrose media were snap frozen using liquid nitrogen to increase viral stability. Viral stock titers were quantified by tissue culture infectious dose 50% (TCID50) using 8,000 cells per well and 3-fold viral dilutions across a 96-well plate, cultured for 4 days. Viral stock titers were also quantified by a plaque forming unit assay, as described elsewhere.
Following extensive parameter testing, the final assay is run as follows: Hep-2 cells are seeded into the inner 60 wells of a 96-well plate at 8,000 cells per well in a volume of 50 μL using Growth Media (DMEM without phenol red, 1% L-Glut, 1% Penn/Strep, 1% nonessential amino acids, 10% heat-inactivated FBS). 2-fold serial dilutions of control and test compounds are added to the wells in duplicate in a total volume of 25 μL. Viral stock is then added to the wells at a multiplicity of infection (MOI) of 0.1 in a volume of 25 μL, bringing the total volume of each well to 100 μL. The MOI is calculated using the PFU/mL, or TCID50 if unavailable. Each 96-well plate has a control column of 6 wells with cells and virus but no compound (negative control, max CPE), a column with cells but no compound or virus (positive control, minimum CPE), and a column with no cells or virus or compound (background plate/reagent control). The control wells with cells but no virus are given an additional 25 μL of growth media containing an equal quantity of sucrose as those wells receiving the viral stock in order to keep consistent in media and volume conditions. The outer wells of the plate are filled with 125 μL of moat media (DMEM, 1% Penn/Strep) to act as a thermal and evaporative moat around the test wells. Following a 5-day incubation period, the plates are read using ATPlite (50 uL added per well), which quantifies the amount of ATP (a measure of cell health) present in each well. Assay plates are read using the Envision luminometer. […] EC50 ranges are as follows: A<0.2 μM; B>0.2 μM.

Structure (SMILES) | EC50 [1] [nM] | EC50 [2] [nM] | EC50 [3] [nM]
Cc1nc2c(OC3CC3)cc(C(=O)NC[C@@](O)(c3ccccc3)c3cc4c(c(-c5ccc(F)c(Cl)c5Cl)n3)OC[C@]4(C)C(N)=O)cc2o1 [Example 271] | < 500 | < 200 | –
COc1cc(C(=O)NC[C@@](O)(c2cccc(F)c2)c2cc3c(c(-c4ccc5c(c4Cl)OC(F)(F)O5)n2)OC[C@]3(C)C(N)=O)cc2cn(C3(F)CC3)nc12 [Example 275] | < 500 | < 200 | –
COc1cc(C(=O)NC[C@@](O)(c2cccc(F)c2)c2cc3c(c(-c4ccc5c(c4Cl)OC(F)(F)O5)n2)OC[C@]3(C)C(N)=O)cc2cn(C(F)F)nc12 [Example 276] | < 500 | < 200 | –
COc1cc(C(=O)NC[C@@](O)(c2ccccc2)c2cc3c(c(-c4ccc(F)c(Cl)c4Cl)n2)OC[C@]3(C)C(N)=O)cc2oc(C)nc12 [Example 277] | < 500 | < 200 | –
COc1cc(C(=O)NC[C@@](O)(c2ccccc2)c2cc3c(c(-c4ccc(F)c(Cl)c4Cl)n2)OC[C@]3(C)C(N)=O)cc2oc(C3CC3)nc12 [Example 278] | < 500 | < 200 | –
COc1cc(C(=O)NC[C@@](O)(c2cccc(F)c2)c2cc3c(c(-c4ccc(F)c(Cl)c4Cl)n2)OC[C@]3(C)C(N)=O)cc2oc(C3CC3)nc12 [Example 280] | < 500 | < 200 | –
[2H]C([2H])([2H])c1nc2ccc(C(=O)NC[C@@](O)(c3cccc(F)c3)c3cc4c(c(-c5ccc(F)c(Cl)c5Cl)n3)OC[C@]4(C)C(N)=O)cc2o1 [Example 281] | < 500 | < 200 | –
[2H]C([2H])([2H])c1nc2ccc(C(=O)NC[C@@](O)(c3cccc(F)c3)c3cc4c(c(-c5ccc6c(c5Cl)OC(F)(F)O6)n3)OC[C@]4(C)C(N)=O)cc2o1 [Example 282] | < 500 | < 200 | –
C[C@]1(C(N)=O)COc2c1cc([C@@](O)(CNC(=O)c1ccc3nc(C4CC4)oc3c1)c1cccc(F)c1)nc2-c1ccc2c(c1Cl)OC(F)(F)O2 [Example 287] | < 500 | < 200 | –
COc1cc(C(=O)NC[C@@](O)(c2ccccc2)c2cc3c(c(-c4ccc(F)c(Cl)c4Cl)n2)OC[C@]3(C)C(N)=O)cc2cc(C)nnc12 [Example 289] | < 500 | < 200 | –
COc1cc(C(=O)NC[C@@](O)(c2ccccc2)c2cc3c(c(-c4ccc(F)c(Cl)c4Cl)n2)OC[C@]3(C)C(N)=O)cc2cc(C3CC3)nnc12 [Example 290] | < 500 | < 200 | –
COc1cc(C(=O)NC[C@@](O)(c2cccc(F)c2)c2cc3c(c(-c4cccc(Cl)c4Cl)n2)OC[C@]3(C)C(N)=O)cc2cn(C3(F)CC3)nc12 [Example 291] | < 500 | < 200 | –
COc1cc(C(=O)NC[C@@](O)(c2cccc(F)c2)c2cc3c(c(-c4cccc(Cl)c4Cl)n2)OC[C@]3(C)C(N)=O)cc2oc(C3CC3)nc12 [Example 292] | < 500 | < 200 | –
COc1cc(C(=O)NC[C@@](O)(c2cccc(F)c2)c2cc3c(c(-c4cccc(Cl)c4Cl)n2)OC[C@]3(C)C(N)=O)cc2oc(C)nc12 [Example 293] | < 500 | < 200 | –
COc1cc(C(=O)NC[C@@](O)(c2ccccc2)c2cc3c(c(-c4ccc(F)c(Cl)c4Cl)n2)OC[C@]3(C)C(N)=O)cc2cc(Cl)cnc12 [Example 294] | < 500 | < 200 | –
COc1cc(C(=O)NC[C@@](O)(c2cccc(F)c2)c2cc3c(c(-c4cc(C(F)(F)F)c(F)cc4F)n2)OC[C@]3(C)C(N)=O)cc2cn(C3CC3)nc12 [Example 295] | < 500 | < 200 | –
COc1cc(C(=O)NC[C@@](O)(c2cccc(F)c2)c2cc3c(c(-c4cc(C(F)(F)F)c(F)cc4F)n2)OC[C@]3(C)C(N)=O)cc2cn(C3(F)CC3)nc12 [Example 296] | < 500 | < 200 | –
COc1cc(C(=O)NC[C@@](O)(c2cccc(F)c2)c2cc3c(c(-c4cc(C(F)(F)F)c(F)cc4F)n2)OC[C@]3(C)C(N)=O)cc2oc(C3CC3)nc12 [Example 297] | < 500 | < 200 | –
COc1cc(C(=O)NC[C@@](O)(c2ccccc2)c2cc3c(c(-c4cc(C(F)F)c(F)cc4F)n2)OC[C@]3(C)C(N)=O)cc2cn(C3(F)CC3)nc12 [Example 298] | < 500 | < 200 | –

Structure (SMILES) | EC50 [1] [nM] | EC50 [2] [nM] | EC50 [3] [nM]
COc1cc(C(=O)NC[C@@](O)(c2ccccc2)c2cc3c(c(-c4cc(C(F)F)c(F)cc4F)n2)OC[C@]3(C)C(N)=O)cc2oc(C3CC3)nc12 [Example 299] | < 500 | < 200 | –
COc1cc(C(=O)NC[C@](O)(c2cc3c(c(-c4ccnc(C(F)(F)F)c4Cl)n2)OC[C@]3(C)C(N)=O)C2CC2)cc2cn(C3CC3)nc12 [Example 419] | – | – | < 200
COc1cc(C(=O)NC[C@](O)(c2cc3c(c(-c4ccnc5c4ccn5C)n2)OC[C@]3(C)C(N)=O)C2CC2)cc2cn(C3CC3)nc12 [Example 420] | – | – | < 200
COc1cc(C(=O)NC[C@](O)(c2cc3c(c(-c4ccnc5c4CCC5)n2)OC[C@]3(C)C(N)=O)C2CC2)cc2cn(C3CC3)nc12 [Example 421] | – | – | < 200
COc1cc(C(=O)NC[C@](O)(c2cc3c(c(-c4ccnc(Cl)c4Cl)n2)OC[C@]3(C)C(N)=O)C2CC2)cc2cn(C(F)F)nc12 [Example 422] | – | – | < 200
COc1cc(C(=O)NC[C@](O)(c2cc3c(c(-c4ccn(C)c(=O)c4Cl)n2)OC[C@]3(C)C(N)=O)C2CC2)cc2cn(C3CC3)nc12 [Example 423] | – | – | > 200
COc1cc(C(=O)NC[C@](O)(c2cc3c(c(-c4cc(C(F)(F)F)ncc4F)n2)OC[C@]3(C)C(N)=O)C(F)(F)F)cc2cn(C(F)F)nc12 [Example 424] | – | – | < 200
COc1cc(C(=O)NC[C@](O)(c2cc3c(c(-c4cc(C(F)(F)F)ncc4F)n2)OC[C@]3(C)C(N)=O)C(F)(F)F)cc2cn(C3CC3)nc12 [Example 425] | – | – | < 200
COc1cc(C(=O)NC[C@](O)(c2cc3c(c(-c4ccnc(C)c4Cl)n2)OC[C@]3(C)C(N)=O)C2CC2)cc2cn(C3CC3)nc12 [Example 426] | – | – | < 200
COc1cc(C(=O)NC[C@](O)(c2cc3c(c(-c4cc[nH]c(=O)c4Cl)n2)OC[C@]3(C)C(N)=O)C2CC2)cc2cn(C3CC3)nc12 [Example 436] | – | – | > 200
COc1cc(C(=O)NC[C@](O)(c2cc3c(c(-c4cc(C(F)F)ncc4Cl)n2)OC[C@]3(C)C(N)=O)C2CC2)cc2cn(C3CC3)nc12 [Example 437] | – | – | < 200
COc1cc(C(=O)NC[C@](O)(c2cc3c(c(-c4ccnc(OC(F)F)c4Cl)n2)OC[C@]3(C)C(N)=O)C2CC2)cc2cn(C3CC3)nc12 [Example 438] | – | – | < 200
COc1cc(C(=O)NC[C@](O)(c2cc3c(c(-c4cccc(OC(F)F)c4Cl)n2)OC[C@]3(C)C(N)=O)C2CC2)cc2cn(C3CC3)nc12 [Example 439] | – | – | < 200
COc1cc(C(=O)NC[C@](O)(c2cc3c(c(-c4cccc(OC(F)(F)F)c4Cl)n2)OC[C@]3(C)C(N)=O)C2CC2)cc2cn(C3CC3)nc12 [Example 440] | – | – | < 200
COc1cc(C(=O)NC[C@@](O)(c2ccccn2)c2cc3c(c(-c4cc(Cl)c(F)cc4F)n2)OC[C@]3(C)C(N)=O)cc2cn(C3CC3)nc12 [Example 463] | < 500 | < 200 | –
COc1cc(C(=O)NCC(O)(c2cc3c(c(-c4cc(Cl)c(F)cc4F)n2)OC[C@]3(C)C(N)=O)c2cc(C(F)F)cs2)cc2cn(C3CC3)nc12 (stereo partly drawn) [Example 468] | > 500 | < 200 | –
COc1cc(C(=O)NCC(O)(c2cc3c(c(-c4cc(Cl)c(F)cc4F)n2)OC[C@]3(C)C(N)=O)c2ccc(C)s2)cc2cn(C3CC3)nc12 (stereo partly drawn) [Example 470] | < 500 | < 200 | –
COc1cc(C(=O)NC[C@](O)(c2cc3c(c(-c4cc(Cl)c(F)cc4F)n2)OC[C@]3(C)C(N)=O)c2cccs2)cc2cn(C3CC3)nc12 [Example 474] | < 500 | < 200 | –
COc1cc(C(=O)NC[C@](O)(c2cc3c(c(-c4cc(Cl)c(F)cc4F)n2)OC[C@]3(C)C(N)=O)c2nccs2)cc2cn(C3CC3)nc12 [Example 475] | < 500 | < 200 | –
